From ChEMBL document CHEMBL1201862, “PubChem BioAssay data set” (2004)
Calls of active or inactive are those of the source.

Legend:
[1] = target: Eukaryotic translation initiation factor 4E (Mus musculus, UniProt P63073); assay: blockers of eIF4G binding by eIF4E – biochemical, TR-FRET, dose response (AID 855); assay type: functional;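 further: potency for disrupting eIF4E binding to eIF4GI seen as loss of FRET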
[2] = reduction of Shn3 3'UTR-driven luciferase in osteoblasts – cell-based, Clone20 osteoblasts, firefly luciferase, cherry-picked, dose response (AID 624132); assay type: functional;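 further: firefly luciferase luminescence from reporter carrying the Shn3 3'UTR in osteoblasts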
[3] = non-specific 3'UTR reporter inhibition in Clone20-Shn3RL – cell-based, Renilla luciferase, cherry-picked, counter-screen for Shn3 inhibitor project, dose response (AID 624133); assay type: functional
[4] = target: Induced myeloid leukemia cell differentiation protein Mcl-1 (Homo sapiens, UniProt Q07820); assay type: functional
[5] = system: Streptococcus sp. 'group A'; assay: Streptococcus pyogenes SK(-)GAS viability under kanamycin – luminescence, BacTiterGlo, confirmation, counter-screen for streptokinase expression inhibitor project, dose response (AID 1900); assay type: functional, organism-based; details: read-out: EC50
Streptococcus = assay: GAS UMAA2166 growth inhibition – luminescence, BacTiterGlo, counter-screen for streptokinase expression inhibitor project, dose response (AID 1915); assay type: functional, organism-based;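 further: potency for reduction of bacterial viability or growth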
[6] = microbe, parasite or virus in culture; assay type: functional; details: Mycobacterium tuberculosis
[7] = NIH3T3 cell viability loss – ATP luminescence, mouse fibroblasts, counter-screen, dose response (AID 2010); assay type: functional, cell-based;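 further: cells exposed to compound for about 90 hours before reading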
[8] = Trypanosoma cruzi growth suppression in host cells – NIH3T3 host cells, beta-gal luminescence, confirmation (AID 2044); assay type: functional, cell-based;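 further: intracellular parasites grown in NIH/3T3 mouse fibroblasts as host cells; luminescent beta-galactosidase reporter signal from transgenic T. cruzi replicating inside host cells; inhibitors lower the luminescence signal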
[9] = Luminescence Cell-Based Dose Retest to Confirm Inhibitors of Cancer Stem Cells. [Related pubchem assays (depositor defined):AID2717, AID2721]; assay type: functional, Homo sapiens; details: Homo sapiens
Streptokinase A = target: T1, Streptokinase A (Streptococcus pyogenes serotype M1, UniProt P10520); assay: viability-normalized secreted streptokinase activity reduction – plasminogen activation absorbance, OD405, dose response (AID 1914); assay type: functional, Streptococcus pyogenes M1 GAS;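 further: secreted streptokinase activity via plasminogen activation per viability signal from cell pellet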
T1 sequence (P10520 whole entry): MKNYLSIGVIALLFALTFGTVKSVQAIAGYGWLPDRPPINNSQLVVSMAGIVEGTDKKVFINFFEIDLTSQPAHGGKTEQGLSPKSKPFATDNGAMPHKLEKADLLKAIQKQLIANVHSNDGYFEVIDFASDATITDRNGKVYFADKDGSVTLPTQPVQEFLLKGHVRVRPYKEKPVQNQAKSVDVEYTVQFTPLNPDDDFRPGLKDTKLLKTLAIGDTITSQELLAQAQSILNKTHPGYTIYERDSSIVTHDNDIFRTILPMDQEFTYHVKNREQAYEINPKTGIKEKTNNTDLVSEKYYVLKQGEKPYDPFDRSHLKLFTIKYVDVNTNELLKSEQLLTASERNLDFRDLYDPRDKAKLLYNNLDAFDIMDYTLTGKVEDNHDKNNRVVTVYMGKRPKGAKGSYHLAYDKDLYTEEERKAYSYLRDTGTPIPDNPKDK

[10] = viability of HCT116 lacking mutant beta-catenin – cell-based, human colon tumor, dose response (AID 1045); assay type: functional;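 further: HCT116 colon tumor cells with beta catenin knocked out; cells exposed to compound for 60 hours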
[11] = viability of PTEN-deleted HCT116 cells – cell-based, HCT116 PTEN knockout, dose response (AID 1047); assay type: functional;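 further: HCT116 colon tumor cells with PTEN knocked out; cells exposed to compound for 60 hours before readout; potency for loss of cell viability measured by luminescence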
cells [12] = assay type: functional, cell-based
cells [13] = assay type: functional, cell-based; remark: listed apart in the source
[14] = blockers of HIV-1 ZM109 envelope-driven cell-cell fusion – HeLa effector, CEM target cells, luciferase, cherry-pick, dose response (AID 652058); assay type: functional, cell-based;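 further: luciferase signal from HIV-1 Env mediated cell-cell fusion of effector and target cells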
[15] = HIV-1 AD8 envelope cell-cell fusion blockers – cherry-pick, dose response (AID 652062); assay type: functional, cell-based;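 further: luciferase signal from cell-cell fusion driven by HIV-1 clade B AD8 Env; potency is for inhibitors of fusion seen as a drop in luminescence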
[16] = blockers of HIV-1 envelope-mediated cell-cell fusion – cherry-pick, dose response (AID 652057); assay type: functional, cell-based
[17] = P. falciparum Dd2 growth inhibitors, dose response, SYBR Green, cherry-picked samples (AID 1159567); assay type: functional, cell-based
Paired box protein Pax-8 = Paired box protein Pax-8 (Homo sapiens, UniProt Q06710); assay: PAX8 transcriptional activity inhibition in RMG-I – RMG-I cells, luciferase, cherry-pick, dose response (AID 687027); assay type: functional, cell-based;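 further: luciferase reporter driven by Pax8 target thyroperoxidase promoter measured by SteadyGlo luminescence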
[18] = luciferase reporter signal suppression in cells – H4 neuroglioma cells, luminescence, dose response (AID 1990); assay type: functional, cell-based
[19] = alpha-synuclein stem-loop luciferase translation blockers – H4 neuroglioma cells, luminescence, confirmation (AID 1988); assay type: functional, cell-based
[20] = Luminescence Cell-Based Dose Response HTS to Identify Inhibitors of 5'UTR Stem-Loop Driven Prion Protein mRNA Translation in H4 Neuroglioblastoma Cells. [Related pubchem assays: 1827 (Project Summary), 1813 (Primary HTS)]; assay type: functional
INS1 = assay: INS-1E survival protection against cytokine death – cell-based, luminescence, retest, dose response (AID 449756); assay type: functional; details: Rattus norvegicus;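 further: cell death triggered by IL-1 beta plus TNF-alpha plus IFN-gamma mixture; protective hits raise ATP signal compared with cytokine alone wells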
[21] = target: T2, Corticotropin-releasing factor receptor 2/Corticotropin-releasing factor-binding protein (Homo sapiens, UniProt P24387+Q13324); assay: activators of CRF receptor 2 with binding protein – uHTS hits, confirmation (AID 602473); assay type: functional; details: read-out: EC50_Mean
T2 sequence (Q13324 whole entry): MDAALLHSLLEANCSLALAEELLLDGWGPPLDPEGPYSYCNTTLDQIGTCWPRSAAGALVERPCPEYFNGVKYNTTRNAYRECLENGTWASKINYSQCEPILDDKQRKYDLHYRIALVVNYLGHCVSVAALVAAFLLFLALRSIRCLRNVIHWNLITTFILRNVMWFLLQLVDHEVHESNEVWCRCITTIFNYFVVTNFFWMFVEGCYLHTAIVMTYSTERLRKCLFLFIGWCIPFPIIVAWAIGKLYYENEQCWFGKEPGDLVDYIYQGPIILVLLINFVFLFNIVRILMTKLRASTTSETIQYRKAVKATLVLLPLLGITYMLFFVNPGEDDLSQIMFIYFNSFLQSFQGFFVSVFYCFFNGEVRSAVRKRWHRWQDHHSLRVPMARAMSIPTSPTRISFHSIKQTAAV
T2 sequence (P24387 whole entry): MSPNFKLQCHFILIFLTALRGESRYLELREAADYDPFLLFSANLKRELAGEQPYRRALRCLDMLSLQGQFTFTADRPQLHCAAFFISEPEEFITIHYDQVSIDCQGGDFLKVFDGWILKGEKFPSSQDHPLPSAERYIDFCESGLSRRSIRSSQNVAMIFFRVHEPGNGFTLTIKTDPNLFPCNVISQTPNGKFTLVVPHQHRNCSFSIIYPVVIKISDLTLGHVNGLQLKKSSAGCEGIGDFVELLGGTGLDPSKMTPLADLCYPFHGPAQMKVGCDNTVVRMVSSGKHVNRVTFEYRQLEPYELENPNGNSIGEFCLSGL

Eukaryotic translation initiation factor 4E, sequence (P63073 whole entry): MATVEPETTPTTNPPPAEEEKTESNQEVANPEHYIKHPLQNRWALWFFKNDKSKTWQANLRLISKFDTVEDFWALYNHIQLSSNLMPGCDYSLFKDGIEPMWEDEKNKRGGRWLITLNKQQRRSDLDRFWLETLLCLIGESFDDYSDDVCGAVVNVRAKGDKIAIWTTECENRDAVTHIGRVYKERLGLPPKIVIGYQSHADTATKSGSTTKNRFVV
Induced myeloid leukemia cell differentiation protein Mcl-1, sequence (Q07820 whole entry): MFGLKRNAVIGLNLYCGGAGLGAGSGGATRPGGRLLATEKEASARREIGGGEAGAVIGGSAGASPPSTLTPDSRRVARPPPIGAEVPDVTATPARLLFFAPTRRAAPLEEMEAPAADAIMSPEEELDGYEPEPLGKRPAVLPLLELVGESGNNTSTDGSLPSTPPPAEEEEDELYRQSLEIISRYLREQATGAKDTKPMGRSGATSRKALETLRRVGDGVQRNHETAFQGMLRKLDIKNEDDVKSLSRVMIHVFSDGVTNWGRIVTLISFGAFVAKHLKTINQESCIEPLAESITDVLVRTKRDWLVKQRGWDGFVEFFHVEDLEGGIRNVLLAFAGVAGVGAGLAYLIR
Paired box protein Pax-8, sequence (Q06710 whole entry): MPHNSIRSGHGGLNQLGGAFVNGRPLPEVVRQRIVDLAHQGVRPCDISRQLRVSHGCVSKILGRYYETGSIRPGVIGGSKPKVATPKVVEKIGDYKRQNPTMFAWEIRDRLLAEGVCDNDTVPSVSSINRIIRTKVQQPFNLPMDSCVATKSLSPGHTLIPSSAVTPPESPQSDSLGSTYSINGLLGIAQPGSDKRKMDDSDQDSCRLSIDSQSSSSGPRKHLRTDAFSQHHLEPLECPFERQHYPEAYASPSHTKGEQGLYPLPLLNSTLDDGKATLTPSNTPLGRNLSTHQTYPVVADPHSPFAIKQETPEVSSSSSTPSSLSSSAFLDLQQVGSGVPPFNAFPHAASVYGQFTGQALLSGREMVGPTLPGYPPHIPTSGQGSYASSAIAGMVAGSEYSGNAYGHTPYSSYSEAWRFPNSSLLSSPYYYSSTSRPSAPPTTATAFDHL

Structure (SMILES): O=C(CCS(=O)(=O)c1cccc2nsnc12)NCc1ccccc1Cl
- IC50 [1]: > 64 µM (inactive)

Structure (SMILES): CC(=O)O[C@H]1CC[C@@]2(C)C(=CC[C@H]3[C@@H]4CC[C@H](C(C)=O)[C@@]4(C)CC[C@@H]32)C1
- AC50 [2]: 28.5 µM (active)
- AC50 [3]: 29 µM (active)

Structure (SMILES): Cc1ccc2nc(N3C(=O)C(O)=C(C(=O)c4cc5ccccc5o4)C3c3cccs3)sc2c1 (centres undefined)
- IC50 [4]: 2.37 µM (active)
- EC50 [5]: 1.39 µM (active)
- EC50 (Streptococcus): 7.6 µM (active)

Structure (SMILES): COc1ccc2[nH]c(=O)c(CN(CCN3CCCC3)C(=O)Nc3ccccc3Cl)cc2c1
- IC50 [1]: > 64 µM (inactive)

Structure (SMILES): O=C(NC(=S)N1CCc2ccccc21)c1ccc(Br)o1
- CC50 [6]: 39.7 µM (active)

Structure (SMILES): CCOC(=O)/C(=N/Nc1ccccc1)c1csc(Nc2ccccc2)n1
- CC50 [6]: > 40 µM (active)
- EC50 [7]: > 30 µM (not active)
- EC50 [8]: 1.39 µM (active)
- EC50 [5]: 3.92 µM (active)
- AC50 [9]: 1.88 µM (active)
- EC50 (Streptococcus): 4.88 µM (active)
- EC50 (Streptokinase A): > 150 µM (not active)

Structure (SMILES): O=C1c2ccccc2C(=O)N1/N=C/c1ccc(O)c(O)c1O
- IC50 [4]: 2.28 µM (active)

Structure (SMILES): COc1ccc(CC(=O)Nc2ccc(-c3noc(-c4ccc(Cl)cc4)n3)cc2)cc1
- EC50 [10]: 1.69 µM (active)
- EC50 [11]: 2.11 µM (active)

Structure (SMILES): O=C(NCc1ccco1)c1cc(-c2ccccc2)on1
- EC50 (cells [12]): > 350 µM (not active)
- EC50 (cells [13]): 62.4 µM (active)

Structure (SMILES): C[C@H](CO)N1C[C@H](C)[C@@H](CN(C)Cc2ccc(Cl)c(Cl)c2)Oc2ccc(N(C)C)cc2C1=O
- AC50 [14]: 5.9 µM (active)
- AC50 [15]: 8.23 µM (active)
- AC50 [16]: 10.5 µM (active)

Structure (SMILES): NNc1nc2ccc(Cl)cc2s1
- CC50 [6]: > 40 µM (active)

Structure (SMILES): CC(C)c1cc(C(=O)Nc2cccc(Cl)c2)no1
- IC50 [1]: > 64 µM (inactive)

Structure (SMILES): CCOC(=O)c1[nH]c(CN2CCN(c3ccc(OC)cc3)CC2)c(C(=O)OCC)c1C
- CC50 [6]: > 40 µM (active)

Structure (SMILES): C[C@H](CO)N1C[C@H](C)[C@H](CN(C)CC2CC2)Oc2ccc(NS(=O)(=O)c3ccc(Cl)cc3)cc2CC1=O
- AC50 [17]: 5.58 µM (active)

Structure (SMILES): C[C@H]1CN([C@@H](C)CO)S(=O)(=O)c2ccc(C#Cc3ccccc3F)cc2O[C@H]1CN(C)C(=O)c1ccc2c(c1)OCO2
- AC50 [17]: 5.07 µM (active)
- AC50 (Paired box protein Pax-8): 5.76 µM (active)

Structure (SMILES): CCCNC(=O)C[C@H]1CC[C@@H]2[C@@H](COc3ccc(NC(=O)c4cccc(C(F)(F)F)c4)cc3C(=O)N2C)O1
- AC50 [14]: 5.51 µM (active)
- AC50 [15]: 12.7 µM (active)
- AC50 [16]: 36 µM (active)

Structure (SMILES): CCN1C(NCCc2ccc(Br)cc2)=N[C@@H](c2ccccc2)[C@H](C(=O)OC)[C@H]1C
- CC50 [6]: 34.3 µM (active)

Structure (SMILES): COC(=O)[C@@]1(Cc2ccccc2)[C@H]2c3cc(C(=O)N4CCCC4)n(CCSCCO)c3C[C@H]2CN1C(=O)c1ccccc1
- IC50 [4]: 1.87 µM (not active)

Structure (SMILES): CCCCCCc1cc2cc(C(=O)Nc3cccc(OC)c3)c(=O)oc2cc1O
- EC50 [18]: > 120 µM (not active)
- EC50 [19]: 16.6 µM (active)
- EC50 [20]: 65.8 µM (active)
- AC50 (INS1): 4.06 µM (active)
- EC50 [21]: > 53 µM (inactive)
